Patent publication US10959979B2, “Small molecules against cancer” (Biokine Therapeutics Ltd., priority 2015, dated 2021)
Converted amounts (≈) assume the structure as drawn.

Experiments:
[1] = biological target: MIP3a (Homo sapiens, UniProt P78556); assay: Migration of CD4+ T-cells toward MIP3a (Transwell migration assay); format: cell-based; conditions: 50 μg/ml; BKT300 at 78% purity
Protocol: (§1) 600 μl of RPMI medium was added to the lower chambers of Transwell® transmigration plates, supplemented with 2 μg/ml of MIP3a, 100 ng/ml of SDF-1 or 10 ng/ml of MCP-1. The tested small molecule was added to the lower chambers at the indicated concentration, except in control samples. The MIP3a, SDF-1 or MCP-1 was incubated with the small molecule for 30 minutes at room temperature before the initiation of the migration assay. Following 30 minutes of incubation 2×10^5 immune cells were added to the upper chambers of the transmigration plates in a total volume of 100 μl. Cells which migrated within 3 hours to the bottom chamber of the Transwell® plates were counted using a FACScalibur™ flow cytometer.
To evaluate migration toward MIP3a, peripheral blood mononuclear cells (PBMCs) were isolated from heparinized venous blood by centrifugation over Ficoll Histopaque® 1077. CD4+ T cells were further isolated with RosetteSep™ human CD4+ T-cell Enrichment cocktail (StemCell Technologies Inc.), according to the manufacturer's instructions. CD4+ T cells were re-suspended in RPMI medium containing 1% fetal calf serum (FCS).

[2] = tested on: MV4-11 human acute myeloid leukemia cells; assay: Cancer cell viability, FACS with propidium iodide staining; format: cell-based
Protocol: (§2) In order to assess the effect of compounds of Table 2 on cancer cell viability, the in vitro effect of the compounds on MV4-11 human acute myeloid leukemia cells was evaluated. The cancer cells were incubated in RPMI cell medium with 1% fetal calf serum (FCS) at a concentration of 2×10^5 cells/well at a final volume of 250 μl in 96-well plate. The compounds were added to the cells at the indicated concentrations. The cells were incubated for 24 hours and the number of dead and viable cells was then evaluated by fluorescence-activated cell sorting (FACS), using propidium iodide (PI) staining.

[3] = biological target: MCP-1 (Homo sapiens, UniProt P13500); assay: Migration of THP-1 cells towards MCP-1 (Transwell migration assay); format: cell-based; conditions: BKT300 at 78% purity
Protocol: as §1
To evaluate migration towards MCP-1, THP-1 cells were re-suspended in RPMI medium containing 1% fetal calf serum (FCS).

[4] = tested on: MV4-11 (FLT3-ITD) cells; assay: AML cells in vivo: NSG mice transplanted with MV4-11 cells; parameters: species or system NOD scid gamma (NSG) mice; conditions: BKT300 at 98% purity; 1 mg/Kg intraperitoneally for three consecutive days from day 21; day 25; anti human CD45
Protocol: The effect of BKT300 (at 98% purity) on the proliferation of AML cells in vivo was examined by treatment of NOD scid gamma (NSG) mice transplanted with MV4-11 (FLT3-ITD) cells.
The mice were subjected to irradiation with 300 rad and on the following day were transplanted by IV injection with MV4-11 (FLT3-ITD) cells, 10×10^6 cells/mouse. 21 days following transplantation, the treated group was injected intraperitoneally with 1 mg/Kg of BKT300 (98% purity) per injection for three consecutive days. On day 25 following transplantation, mice were sacrificed and the survival of the human AML blasts in the blood, spleen and the bone marrow was evaluated using anti human CD45.

[5] = tested on: Jurkat human acute lymphoblastic leukemia cells; assay: Cancer cell viability, FACS with propidium iodide staining; format: cell-based; conditions: BKT300 at 78% purity
Protocol: as §2
(§3) The in vitro effect of BKT300 (at 78% purity) on cancer cell viability was further evaluated using a variety of additional cancer cell lines, using procedures as described hereinabove with respect to MV4-11 cells.

[6] = tested on: Bjab human lymphoma cells; assay: as above; format: cell-based; conditions: 8.5 μg/ml; BKT300 at 78% purity
Protocol: as §2, §3

[7] = tested on: H345 human small cell lung cancer cells; assay: as above; format: cell-based; conditions: 8.5 μg/ml; BKT300 at 78% purity
Protocol: as §2, §3

[8] = tested on: H460 human large cell lung cancer cells; assay: as above; format: cell-based; conditions: 10 μg/ml; BKT300 at 78% purity
Protocol: as §2, §3

[9] = tested on: Raji human lymphoma cells; assay: as above; format: cell-based; conditions: BKT300 at 78% purity
Protocol: as §2, §3

[10] = tested on: RPMI human multiple myeloma cells; assay: as above; format: cell-based; conditions: BKT300 at 78% purity; concentrations as low as 2 μg/ml (the lowest tested concentration)
Protocol: as §2, §3

[11] = biological target: T1, MLCK (MLCK2) (Homo sapiens, UniProt Q32MK0); assay: LanthaScreen europium kinase binding assay; conditions: BKT300 at 78% purity
T1 sequence (Q32MK0 1-819): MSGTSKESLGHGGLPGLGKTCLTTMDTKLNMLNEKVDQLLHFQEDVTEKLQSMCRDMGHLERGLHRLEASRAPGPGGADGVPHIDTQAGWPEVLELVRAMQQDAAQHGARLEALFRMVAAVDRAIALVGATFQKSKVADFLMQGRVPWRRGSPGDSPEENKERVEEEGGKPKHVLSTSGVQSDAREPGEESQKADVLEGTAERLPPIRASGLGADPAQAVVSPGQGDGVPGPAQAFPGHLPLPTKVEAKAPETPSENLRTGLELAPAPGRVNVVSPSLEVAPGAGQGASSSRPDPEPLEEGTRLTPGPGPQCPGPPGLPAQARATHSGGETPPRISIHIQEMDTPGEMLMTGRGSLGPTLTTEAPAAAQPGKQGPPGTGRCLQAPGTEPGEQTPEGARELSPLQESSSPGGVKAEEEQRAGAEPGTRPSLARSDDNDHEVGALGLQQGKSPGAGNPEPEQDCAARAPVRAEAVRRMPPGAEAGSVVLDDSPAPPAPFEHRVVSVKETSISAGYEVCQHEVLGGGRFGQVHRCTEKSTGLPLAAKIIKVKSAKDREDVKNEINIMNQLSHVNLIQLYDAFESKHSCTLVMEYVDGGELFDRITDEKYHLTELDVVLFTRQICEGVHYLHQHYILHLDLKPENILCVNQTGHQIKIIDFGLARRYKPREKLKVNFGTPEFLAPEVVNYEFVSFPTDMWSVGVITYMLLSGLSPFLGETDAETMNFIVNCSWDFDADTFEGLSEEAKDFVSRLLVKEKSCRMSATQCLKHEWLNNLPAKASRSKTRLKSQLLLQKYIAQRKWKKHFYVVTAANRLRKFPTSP
Protocol: (§4) In order to further characterize the effect of BKT300 on cell signaling, kinase profiling of BKT300 (at 78% purity) was performed (by the Life Technologies SelectScreen® Biochemical Profiling Lab) using a LanthaScreen® europium kinase binding assay to screen 440 kinases.
(§5) The principle of the LanthaScreen® assay is depicted in FIG. 48. Binding of an Alexa Fluor® conjugate or “tracer” to a kinase is detected by addition of a europium (Eu)-labeled anti-tag antibody. Binding of the tracer and antibody to a kinase results in a high degree of FRET, whereas displacement of the tracer with a kinase inhibitor results in a loss of FRET. The kinase tracers are based on ATP-competitive kinase inhibitors, making them suitable for detection of any compounds that bind to the ATP site. Inhibitors that bind the ATP site include both Type I kinase inhibitors, which bind solely to the ATP site, and Type II inhibitors (e.g., imatinib, sorafenib, BIRB-796), which bind to both the ATP site and a second site often referred to as the allosteric site.

[12] = tested on: 440 kinases; assay: LanthaScreen europium kinase binding assay, screen of 440 kinases; parameters: species or system human
Protocol: as §4, §5

[13] = biological target: SDF-1 (Homo sapiens, UniProt P48061); assay: Migration of Jurkat cells towards SDF-1 (Transwell migration assay); format: cell-based; conditions: for Inhibition of migration of lymphocytic Jurkat cells towards SDF-1: 10 μg/ml
Protocol: as §1
To evaluate migration towards SDF-1, Jurkat cells were re-suspended in RPMI medium containing 1% fetal calf serum (FCS).

Chain of SDF-1 (P48061 22-93): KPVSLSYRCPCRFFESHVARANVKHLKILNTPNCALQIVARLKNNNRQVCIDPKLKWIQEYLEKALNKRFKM
Chain of MCP-1 (P13500 24-99): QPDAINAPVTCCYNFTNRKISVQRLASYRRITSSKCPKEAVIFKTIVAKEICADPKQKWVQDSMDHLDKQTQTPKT
Chain of MIP3a (P78556 27-96): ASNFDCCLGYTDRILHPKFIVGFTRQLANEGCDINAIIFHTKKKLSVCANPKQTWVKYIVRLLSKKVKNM

Inhibition of CD4+ T-cell migration towards MIP3a [1]: completely inhibited | Inhibition of migration of monocytic THP-1 cells towards MCP-1 ([3]; 10 μg/ml): no apparent effect | Inhibition of migration of monocytic THP-1 cells towards MCP-1 ([3]; 50 μg/ml): strong inhibition | % Inhibition [11]: 58% | Inhibition of 36 of the 440 screened kinases ([12]; BKT300 at 78% purity): more than 40% | Affinity of BKT300 to kinases, based on the kinase screening assay ([12]; estimated from Table 3): few tens | Inhibition of migration of lymphocytic Jurkat cells towards SDF-1 ([13]; BKT300 at 78% purity): significantly inhibited | Inhibition of migration of lymphocytic Jurkat cells towards SDF-1 ([13]; BKT300 at 98% purity): significantly inhibited | Selectivity of inhibition of SDF-1 function over MCP-1 and/or MIP3a function ([13]; at a concentration of about 10 μg/ml): relatively selective manner
Structure (SMILES): CCCCCc1cc2cc(O)cc(Oc3c(O)cc(O)cc3CCCCC)c2c(=O)o1 [BKT300]
Degree of cell death of MV4-11 cells, 98% purity compared with 78% purity ([2]; 4.25 μg/ml, BKT300 at 98% purity vs 78% purity): considerably greater degree of cell death | Cell death of MV4-11 cells ([2]; BKT300 at 78% purity, concentrations as low as 2 μg/ml (the lowest tested concentration), 24 hours): induced cell death | Induction of cell death of MV4-11 cells, 98% purity compared with 78% purity ([2]; BKT300 at 98% purity vs BKT300 at 78% purity): significantly more effective | IC50 ([2]; Homo sapiens, MV4-11, BKT300 at 78% purity, 24 hours, read-out: IC50 for induced death of MV4-11 cells): 2.72 µg/mL (≈ 6.38 µM) | Number and percentage of AML cells in the bone marrow of mice [4]: dramatically reduced | Cell death of Jurkat cells ([5]; concentrations as low as 2 μg/ml (the lowest tested concentration)): induced cell death | IC50 ([5]; Homo sapiens, Jurkat, read-out: IC50 for BKT300-induced death of Jurkat cells): 3.5 µg/mL (≈ 8.21 µM) | Cell death of Bjab cells [6]: about 30% | Cell death of H345 cells [7]: over 90% | Cell death of H460 cells [8]: about 80% | Cell death of Raji cells ([9]; 4.25 μg/ml): slight cell death | Cell death of Raji cells ([9]; 8.5 μg/ml): about 30% | Cell death of RPMI cells [10]: induced cell death
